Assay results reported in patent publication US8685394B2, “Combination of anti-CTLA4 antibody with diverse therapeutic regimens for the synergistic treatment of proliferative diseases” (Bristol-Myers Squibb Company, priority 2008, dated 2014).
Entries after “also recorded” stand apart in the source; their conditions may differ. Read-outs that look alike come from different tables or passages of the source.

What was measured:
M109 lung carcinoma [1] = test: M109 lung carcinoma subcutaneous tumor model; assay type: in vivo, murine; conditions: for CR / T-C (1000 mm^3) / PR / % TGI (Average): M109 s.c.; for CR: complete regression = non-palpable tumor for ≧2 assessments; for T-C (1000 mm^3): number of days to reach target tumor size 1000 mm^3, doses and schedules of Table 1; for PR: partial regression = 50% reduction in tumor volume for ≧2 assessments; for % TGI (Average): percent tumor growth inhibition, each treatment at dose (mg/kg) and schedule (study days) of Table 1
Method: (§1) All compounds were tested at their optimal dose and schedule. When used in combination, CTLA-4 mAb was initiated one day after the first dose of chemotherapy. Percent tumor growth inhibition and number of days to reach target tumor size were used to evaluate efficacy. Antitumor activity was scored as: complete regression (CR; non-palpable tumor for ≧2 assessments) or partial regression (PR; 50% reduction in tumor volume for ≧2 assessments).

M109 lung metastasis = test: M109 lung carcinoma model of experimental pulmonary metastasis; assay type: in vivo, murine; conditions: doses and schedules of Table 2, control vehicle 32
SA1N fibrosarcoma [2] = test: SA1N fibrosarcoma subcutaneous tumor model; assay type: in vivo, murine; conditions: SA1N s.c.; for % TGI (Average D 20-48): average of days 20-48, doses and schedules of Table 3; for CR: mice with complete regression / mice in group; for PR: mice with partial regression / mice in group; for T-C (1000 mm^3): number of days to reach target tumor size 1000 mm^3
Method: as §1

CT26 colon carcinoma [3] = test: CT26 colon carcinoma subcutaneous tumor model; assay type: in vivo, murine; conditions: for % TGI (Average) / CR / PR / T-C (1000 mm^3): CT26 s.c.; for % TGI (Average): doses and schedules of Table 4; for CR: mice with complete regression / mice in group; for PR: mice with partial regression / mice in group; for T-C (1000 mm^3): number of days to reach target tumor size 1000 mm^3
Method: as §1

tumor models = test: Antitumor activity in murine tumor models, model not stated (FIG. 6, 8, 9, 10; summary); assay type: in vivo; conditions: concurrent treatment
[4] = tested on: immune cells in tumor-draining lymph nodes; test: Composition of immune cells in tumor-draining lymph nodes (FIG. 13); assay type: in vivo
in vivo cytotoxicity = conditions: FIG. 12
SA1N fibrosarcoma [5] = conditions: dasatinib 30 mg/kg daily or 5 days on/2 days off, concurrent CTLA-4 mAb
CT26 colon carcinoma [6] = conditions: dasatinib 30 mg/kg, concurrent CTLA-4 mAb
M109 lung carcinoma [7] = conditions: dasatinib with CTLA-4 mAb
P815 mastocytoma = conditions: SPRYCEL 30 mg/kg P.O., anti-CTLA-4 mAb IP days 10, 14, 18
T-cell function = conditions: in vitro; concentrations of 10-50 nM; inhibition of cytokine secretion and degranulation; Weischel et al., 2008; cited from earlier work
T-cell activation = conditions: Schade et al., 2007; cited from earlier work
STAT3 = conditions: Yu, H. et al., 2007; cited from earlier work
[8] = CT26 colon carcinoma, established tumors

Compound	CR (M109 lung carcinoma [1])	T-C (1000 mm^3) (M109 lung carcinoma [1])	PR (M109 lung carcinoma [1])	% TGI (Average) (M109 lung carcinoma [1]) [%]	antitumor activity / combination effect, in words (M109 lung carcinoma [1]; M109 subcutaneous tumor model)	Median Survival Time (M109 lung metastasis) [days]	% TGI (Average D 20-48) (SA1N fibrosarcoma [2]) [%]	CR (SA1N fibrosarcoma [2])	PR (SA1N fibrosarcoma [2])	T-C (1000 mm^3) (SA1N fibrosarcoma [2])	antitumor activity / combination effect, in words (CT26 colon carcinoma [3]; [8])	% TGI (Average) (CT26 colon carcinoma [3]) [%]	CR (CT26 colon carcinoma [3])	PR (CT26 colon carcinoma [3])	T-C (1000 mm^3) (CT26 colon carcinoma [3])	CTLA-4 blockade activity under concurrent chemotherapy (tumor models)	other results
4′-Demethylepipodophyllotoxin 9-[4,6-O-(R)-ethylidene-β-D-glucopyranoside], 4′-(dihydrogen phosphate) [Etoposide]	0	9	0	59	modestly sensitive	34	88	0/8	1/8	14	effective as single agents	66	1/8	0/8	11	not abolished	–
Cl.Nc1ccn([C@@H]2O[C@H](CO)[C@@H](O)C2(F)F)c(=O)n1 (single isomer, unassigned) [Gemcitabine, 2′-deoxy-2′,2′-difluorocytidine monohydrochloride (β-isomer)]	0	2.2	0	32	modestly sensitive; also recorded: did not produce significant antitumor activity	42	68	0/8	0/8	11	effective as single agents	102	2/8	0/8	12	not abolished	antitumor activity / combination effect, in words (M109 lung carcinoma [1]; M109 subcutaneous tumor model, listed as Gem): modestly sensitive; also recorded: did not produce significant M109 antitumor activity; composition of immune cells in tumor-draining lymph nodes [4]: modulates the composition of immune cells; in vivo cytotoxicity (in vivo cytotoxicity): promote in vivo cytotoxicity
CC(=O)O[C@H]1C(=O)[C@@]2(C)[C@H]([C@H](OC(=O)c3ccccc3)[C@]3(O)C[C@H](OC(=O)[C@H](O)[C@@H](NC(=O)c4ccccc4)c4ccccc4)C(C)=C1C3(C)C)[C@]1(OC(C)=O)CO[C@@H]1C[C@@H]2O [Paclitaxel, 5beta,20-Epoxy-1,2alpha,4,7beta,10beta,13alpha-hexahydroxytax-11-en-9-one 4,10-diacetate 2-benzoate 13-ester with (2R,3S)-N-benzoyl-3-phenylisoserine]	0	5	0	45	–	38	65	0/8	0/8	13	–	0	0/8	0/8	0	not abolished	antitumor activity / combination effect, in words (M109 lung carcinoma [1]; mouse, in vivo, sc): modestly sensitive; antitumor activity / combination effect, in words (CT26 colon carcinoma [3]; mouse, in vivo): ineffective
Cc1nc(Nc2ncc(C(=O)Nc3c(C)cccc3Cl)s2)cc(N2CCN(CCO)CC2)n1 [dasatinib, N-(2-chloro-6-methylphenyl)-2-[[6-[4-(2-hydroxyethyl)-1-piperazinyl]-2-methyl-4-pyrimidinyl]amino]-5-thiazolecarboxamide]	–	–	–	–	–	–	–	–	–	–	–	–	–	–	–	–	antitumor activity / combination effect, in words (SA1N fibrosarcoma [5]): modest antitumor activity; antitumor activity / combination effect, in words (CT26 colon carcinoma [6]): minimal activity; antitumor activity / combination effect, in words (M109 lung carcinoma [7]): minimal activity; antitumor activity / combination effect, in words (P815 mastocytoma): modest antitumor activity; effect on T-cell function (T-cell function): inhibits T-cell function; effect on T-cell activation (T-cell activation): blockade of T-cell activation; inhibition of STAT3 (STAT3): potent inhibition of STAT3
